# Starred links: 1 amine or outer side, 2 acyl side, 3 side chain; linkers in the order of their positions; H or OH if unused. Positions of bridges follow the written chain, without caps; N, C: chain ends. Non-standard residues stand in square brackets, D forms with d. Residues, ends and D or L forms follow the SMILES beside them. Groups on a side chain read outwards from the residue. ξ: configuration not given here. *: point of attachment. X28 = O=C(O)CCCCCCCCCCNC(=O)CCC(=O)NCCCOCCOCCOCCCNC(=O)CCC(=O)NCCCOCCOCCOCCCN*; Dap(Nα-HOOC(CH2)16CO)OH = O=C(O)CCCCCCCCCCCCCCCCC(=O)N[C@@H](CN*)C(=O)O; X11 = O=C(O)CCCCCCCCCCCCC(=O)N[C@@H](CCC(=O)NCCCOCCOCCOCCCN*)C(=O)O; Trp(1-CH2COOH) = N[C@@H](Cc1cn(CC(=O)O)c2ccccc12)C(=O)O; X24 = O=C(C[C@@H](Cc1ccc(O)cc1)C(=O)[*:1])C[*:2]; C18 diacid = O=C(O)CCCCCCCCCCCCCCCCC(=O)*; Phe(4-F) = N[C@@H](Cc1ccc(F)cc1)C(=O)O; γGlu = O=C(O)[C@H](CCC(=O)[*:2])N[*:1]; Ethylenediamine = C(CN[*:2])N[*:1]; PEG6 = NCCOCCOCCOCCOCCOCCOCCC(=O)O; Hyp = O=C(O)[C@@H]1C[C@@H](O)CN1; Myristoyl = CCCCCCCCCCCCCC(=O)*; Undecanoyl = CCCCCCCCCCC(=O)*; NMeNle = CCCC[C@H](NC)C(=O)O; Pip = O=C(O)[C@@H]1CCCCN1; NMeA = CN[C@@H](C)C(=O)O; Pra = C#CC[C@H](N)C(=O)O; Aun = NCCCCCCCCCCC(=O)O; Dab = NCC[C@H](N)C(=O)O; Dap = NC[C@H](N)C(=O)O; ξD = NC(CC(=O)O)C(=O)O; ξC = NC(CS)C(=O)O
# Molecular target: T1, PD-L1 (Homo sapiens, UniProt Q9NZQ7)
# T1 construct: hPDL1(19-239)-TVMV-His; made in house; host or cells: HEK293T
# T1 sequence (Q9NZQ7 with tags, fused parts or gaps): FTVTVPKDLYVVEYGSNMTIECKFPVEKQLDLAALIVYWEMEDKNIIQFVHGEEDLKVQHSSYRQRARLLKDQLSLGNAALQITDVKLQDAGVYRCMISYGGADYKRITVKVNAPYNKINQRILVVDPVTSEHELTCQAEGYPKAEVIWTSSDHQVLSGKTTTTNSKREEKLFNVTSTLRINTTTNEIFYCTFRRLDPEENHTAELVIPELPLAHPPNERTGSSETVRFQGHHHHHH
# Test: PD-1/PD-L1 Homogenous Time-Resolved Fluorescence (HTRF) binding assay (PD-1-Ig/PD-L1-His)
# Conditions: inhibition of PD-1-Ig binding to PD-L1-TVMV-His; value given as range class; read-out: HTRF IC50
# Procedure, shortened: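 Inhibitors pre-incubated 15 min with PD-L1-His (10 nM final), then PD-1-Ig (20 nM final) added for 15 min in dPBS/0.1% BSA/0.05% Tween-20. Eu-cryptate anti-Ig (1 nM) and APC anti-His (20 nM) added, 30 min equilibration, 665/620 nm HTRF ratio read.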
row,IC50 [nM],Structure (SMILES)
1,10 to 99,CCCC[C@H]1C(=O)N(C)[C@@H](CCCC)C(=O)N[C@@H](CC(C)C)C(=O)N[C@H](C(=O)NCC(=O)N[C@@H](CC(=O)NC[C@H](NC(=O)CCCCCCCCCCCCCCCCC(=O)O)C(=O)O)C(=O)O)CSCC(=O)N[C@@H](Cc2ccc(O)cc2)C(=O)N(C)[C@@H](C)C(=O)N[C@@H](CC(N)=O)C(=O)N2CCC[C@H]2C(=O)N[C@@H](CN)C(=O)N[C@@H](CC(C)C)C(=O)N2C[C@H](O)C[C@H]2C(=O)N[C@@H](Cc2c[nH]c3ccccc23)C(=O)N[C@@H](CCN)C(=O)N[C@@H](Cc2cn(CC(=O)O)c3ccccc23)C(=O)N1C [Example 11172] ({CH2CO}-Y[NMeA]NP[Dap]L[Hyp]W[Dab][Trp(1-CH2COOH)][NMeNle][NMeNle]LCGD(Dap(Nα-HOOC(CH2)16CO)OH)-OH; thioether N-14)
2,10 to 99,CCCCCCCCCCCCCC(=O)NCCCC[C@H](NC(=O)CCOCCOCCOCCOCCOCCOCCNC(=O)CNC(=O)C1CSCC(=O)N[C@@H](Cc2ccc(O)cc2)C(=O)N(C)[C@@H](C)C(=O)N[C@@H](CC(=O)O)C(=O)N2CCC[C@H]2C(=O)N[C@@H](Cc2cnc[nH]2)C(=O)N[C@@H](CC(C)C)C(=O)N2C[C@H](O)C[C@H]2C(=O)N[C@@H](Cc2c[nH]c3ccccc23)C(=O)N[C@@H](CO)C(=O)N[C@@H](Cc2c[nH]c3ccccc23)C(=O)N(C)[C@@H](CCCC)C(=O)N(C)[C@@H](CCCC)C(=O)N[C@@H](CCCNC(=N)N)C(=O)N1)C(N)=O (stereo partly shown) [Example 11015] ({CH2CO}-Y[NMeA]DPHL[Hyp]WSW[NMeNle][NMeNle]R[ξC]G[PEG6]K(Myristoyl)-NH2; thioether N-14)
3,10 to 99,CCCC[C@H]1C(=O)N(C)[C@@H](CCCC)C(=O)N[C@@H](CC(C)C)C(=O)N[C@H](C(=O)NCC(=O)N[C@@H](CC(=O)NCCNC(=O)CC[C@H](NC(=O)CCCCCCCCCCCCCCCCC(=O)O)C(=O)O)C(=O)O)CSCC(=O)N[C@@H](Cc2ccc(F)cc2)C(=O)N2CCCC[C@H]2C(=O)N[C@@H](CC(=O)O)C(=O)N2CCC[C@H]2C(=O)N[C@@H](CN)C(=O)N[C@@H](CC(C)C)C(=O)N2C[C@H](O)C[C@H]2C(=O)N[C@@H](Cc2c[nH]c3ccccc23)C(=O)N[C@@H](CCN)C(=O)N[C@@H](Cc2cn(CC(=O)O)c3ccccc23)C(=O)N1C [Example 14124] ({CH2CO}-[Phe(4-F)][Pip]DP[Dap]L[Hyp]W[Dab][Trp(1-CH2COOH)][NMeNle][NMeNle]LCGD([Ethylenediamine-γGlu-C18 diacid])-OH; thioether N-14)
4,0.3 to 9.9,CCCC[C@H]1C(=O)N(C)[C@@H](CCCC)C(=O)N[C@@H](CC(C)C)C(=O)N[C@H](C(=O)NCC(=O)NCCCOCCOCCOCCCNC(=O)CC[C@H](NC(=O)CCCCCCCCCCCCC(=O)O)C(=O)O)CSCC(=O)N[C@@H](Cc2ccc(O)cc2)C(=O)N(C)[C@@H](C)C(=O)N[C@@H](CC(N)=O)C(=O)N2CCC[C@H]2C(=O)N[C@@H](CN)C(=O)N[C@@H](CC(C)C)C(=O)N2C[C@H](O)C[C@H]2C(=O)N[C@@H](Cc2c[nH]c3ccccc23)C(=O)N[C@@H](CCN)C(=O)N[C@@H](Cc2cn(CC(=O)O)c3ccccc23)C(=O)N1C [Example 11260] ({CH2CO}-Y[NMeA]NP[Dap]L[Hyp]W[Dab][Trp(1-CH2COOH)][NMeNle][NMeNle]LCG-X11; thioether N-14)
5,10 to 99,CCCC[C@H]1C(=O)N2C[C@H](O)C[C@@H]2C(=O)N[C@@H](CC(=O)O)C(=O)N[C@@H](C(C)C)C(=O)N(C)[C@@H](Cc2ccccc2)C(=O)N[C@@H](CC(=O)O)C(=O)N2CCC[C@@H]2C(=O)N[C@@H](Cc2c[nH]c3ccccc23)C(=O)N[C@@H](Cc2ccc(O)cc2)C(=O)N[C@@H](CC(C)C)C(=O)N[C@H](C(=O)NCC(=O)N[C@@H](Cc2cn(CC[C@H](NC(=O)CCCCCCCCCCCCCCC(=O)O)C(=O)O)nn2)C(N)=O)CSCC(=O)N[C@@H](Cc2cc(F)c(F)c(F)c2)C(=O)N(C)[C@@H](Cc2ccccc2)C(=O)N1C [Example 14074]
6,10 to 99,CCCC[C@H]1C(=O)N(C)[C@@H](CCCC)C(=O)N[C@@H](CCC(=O)O)C(=O)N[C@H](C(=O)NCC(=O)N[C@@H](Cc2cn(CC[C@H](NC(=O)CCCCCCCCCCCCCCCCC(=O)O)C(=O)O)nn2)C(=O)O)CSCC(=O)N[C@@H](Cc2ccc(O)cc2)C(=O)N(C)[C@@H](C)C(=O)N[C@@H](CC(=O)O)C(=O)N2CCC[C@H]2C(=O)N[C@@H](CN)C(=O)N[C@@H](CC(C)C)C(=O)N2C[C@H](O)C[C@H]2C(=O)N[C@@H](Cc2c[nH]c3ccccc23)C(=O)N[C@@H](CCN)C(=O)N[C@@H](Cc2cn(CC(=O)O)c3ccccc23)C(=O)N1C [Example 13126]
7,10 to 99,CCCC[C@H]1C(=O)N(C)[C@@H](CCCC)C(=O)N[C@@H](CCCNC(=N)N)C(=O)N[C@H](C(=O)NCC(=O)NCC(=O)N[C@@H](CC(=O)O)C(=O)NCCCCCCCCCCC(=O)O)CSCC(=O)N[C@@H](Cc2ccc(O)cc2)C(=O)N(C)[C@@H](C)C(=O)N[C@@H](CC(=O)O)C(=O)N2CCC[C@H]2C(=O)N[C@@H](Cc2cnc[nH]2)C(=O)N[C@@H](CC(C)C)C(=O)N2C[C@H](O)C[C@H]2C(=O)N[C@@H](Cc2c[nH]c3ccccc23)C(=O)N[C@@H](CO)C(=O)N[C@@H](Cc2c[nH]c3ccccc23)C(=O)N1C [Example 11069] ({CH2CO}-Y[NMeA]DPHL[Hyp]WSW[NMeNle][NMeNle]RCGGD[Aun]-OH; thioether N-14)
8,100 to 1600,CCCCCCCCCCCCCC(=O)NCCCC[C@H](NC(=O)[C@H](CC(=O)O)NC(=O)[C@H](CC(=O)O)NC(=O)CNC(=O)[C@@H]1CSCC(=O)N[C@@H](Cc2ccc(O)cc2)C(=O)N(C)[C@@H](C)C(=O)N[C@@H](CC(=O)O)C(=O)N2CCC[C@H]2C(=O)N[C@@H](Cc2cnc[nH]2)C(=O)N[C@@H](CC(C)C)C(=O)N2C[C@H](O)C[C@H]2C(=O)N[C@@H](Cc2c[nH]c3ccccc23)C(=O)N[C@@H](CO)C(=O)N[C@@H](Cc2c[nH]c3ccccc23)C(=O)N(C)[C@@H](CCCC)C(=O)N(C)[C@@H](CCCC)C(=O)N[C@@H](CCCNC(=N)N)C(=O)N1)C(N)=O [Example 11014] ({CH2CO}-Y[NMeA]DPHL[Hyp]WSW[NMeNle][NMeNle]RCGDDK(Myristoyl)-NH2; thioether N-14)
9,100 to 1600,CCCCCCCCCCC(=O)NCCCC[C@H](NC(=O)[C@H](CC(=O)O)NC(=O)[C@@H]1CSCC(=O)N[C@@H](Cc2ccc(O)cc2)C(=O)N(C)[C@@H](C)C(=O)N[C@@H](CC(=O)O)C(=O)N2CCC[C@H]2C(=O)N[C@@H](Cc2cnc[nH]2)C(=O)N[C@@H](CC(C)C)C(=O)N2C[C@H](O)C[C@H]2C(=O)N[C@@H](Cc2c[nH]c3ccccc23)C(=O)N[C@@H](CO)C(=O)N[C@@H](Cc2c[nH]c3ccccc23)C(=O)N(C)[C@@H](CCCC)C(=O)N(C)[C@@H](CCCC)C(=O)N[C@@H](CCCNC(=N)N)C(=O)N1)C(N)=O [Example 11008] ({CH2CO}-Y[NMeA]DPHL[Hyp]WSW[NMeNle][NMeNle]RCDK(Undecanoyl)-NH2; thioether N-14)
10,10 to 99,CCCC[C@H]1C(=O)N(C)[C@@H](CCCC)C(=O)N[C@@H](CC(C)C)C(=O)N[C@H](C(=O)NCCCCCCCCCCC(=O)N[C@@H](CCC(=O)O)C(=O)O)CSCC(=O)N[C@@H](Cc2ccc(O)cc2)C(=O)N(C)[C@@H](C)C(=O)N[C@@H](CC(N)=O)C(=O)N2CCC[C@H]2C(=O)N[C@@H](Cc2cnc[nH]2)C(=O)N[C@@H](CCC(=O)O)C(=O)N2C[C@H](O)C[C@H]2C(=O)N[C@@H](Cc2c[nH]c3ccccc23)C(=O)N[C@@H](CCN)C(=O)N[C@@H](Cc2c[nH]c3ccccc23)C(=O)N1C [Example 11130] ({CH2CO}-Y[NMeA]NPHE[Hyp]W[Dab]W[NMeNle][NMeNle]LC[Aun]E-OH; thioether N-14)
11,100 to 1600,CCCC[C@H]1C(=O)N(C)[C@@H](CCCC)C(=O)N[C@@H](CC(C)C)C(=O)N[C@H](C(=O)NCCCOCCOCCOCCCNC(=O)CCC(=O)NCCCOCCOCCOCCCNC(=O)CCC(=O)NCCCCCCCCCCC(=O)O)CSCC(=O)N[C@@H](Cc2ccc(O)cc2)C(=O)N(C)[C@@H](C)C(=O)N[C@@H](CC(N)=O)C(=O)N2CCC[C@H]2C(=O)N[C@@H](CN)C(=O)N[C@@H](CCC(N)=O)C(=O)N2C[C@H](O)C[C@H]2C(=O)N[C@@H](Cc2c[nH]c3ccccc23)C(=O)N[C@@H](CO)C(=O)N[C@@H](Cc2cn(CC(=O)O)c3ccccc23)C(=O)N1C [Example 11088] ({CH2CO}-Y[NMeA]NP[Dap]Q[Hyp]WS[Trp(1-CH2COOH)][NMeNle][NMeNle]LC-X28; thioether N-14)
12,0.3 to 9.9,C#CC[C@H](NC(=O)[C@@H]1CSCC(=O)N[C@@H](Cc2ccc(O)cc2)C(=O)N(C)[C@@H](C)C(=O)N[C@@H](CC(N)=O)C(=O)N2CCC[C@H]2C(=O)N[C@@H](CN)C(=O)N[C@@H](CC(C)C)C(=O)N2C[C@H](O)C[C@H]2C(=O)N[C@@H](Cc2c[nH]c3ccccc23)C(=O)N[C@@H](CCN)C(=O)N[C@@H](Cc2cn(CC(=O)O)c3ccccc23)C(=O)N(C)[C@@H](CCCC)C(=O)N(C)[C@@H](CCCC)C(=O)N[C@@H](CC(C)C)C(=O)N1)C(=O)O [INT130AF] ({CH2CO}-Y[NMeA]NP[Dap]L[Hyp]W[Dab][Trp(1-CH2COOH)][NMeNle][NMeNle]LC[Pra]-OH; thioether N-14)
13,10 to 99,CCCCCCCCCCCCCC(=O)NCCCC[C@H](NC(=O)C(CC(=O)O)NC(=O)CCOCCOCCOCCOCCOCCOCCNC(=O)CNC(=O)[C@@H]1CSCC(=O)C[C@@H](Cc2ccc(O)cc2)C(=O)N(C)[C@@H](C)C(=O)N[C@@H](CC(=O)O)C(=O)N2CCC[C@H]2C(=O)N[C@@H](Cc2cnc[nH]2)C(=O)N[C@@H](CC(C)C)C(=O)N2C[C@H](O)C[C@H]2C(=O)N[C@@H](Cc2c[nH]c3ccccc23)C(=O)N[C@@H](CO)C(=O)N[C@@H](Cc2c[nH]c3ccccc23)C(=O)N(C)[C@@H](CCCC)C(=O)N(C)[C@@H](CCCC)C(=O)N[C@@H](CCCNC(=N)N)C(=O)N1)C(N)=O (stereo partly shown) [Example 11013] ([NMeA]DPHL[Hyp]WSW[NMeNle][NMeNle]RCG[PEG6][ξD]K(Myristoyl)-NH2; linker N-13 via X24)

# Reference: patent publication US10633419B2, “Immunomodulators” (BRISTOL-MYERS SQUIBB COMPANY, priority 2014, dated 2020)
